# Reference: PubChem BioAssay (NCI)
#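 Each compound was tested at five concentrations against cells in 96-well plates for 48 hours. TGI denotes the concentration required for complete inhibition of growth.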
# Assays:
# Assay in all cases: inhibition of tumour cell growth, NCI panel, 48 h
# KM12 colon = system: KM12 colon
# HCC-2998 colon = system: HCC-2998 colon
# MALME-3M melanoma = system: MALME-3M melanoma
# OVCAR-4 ovarian = system: OVCAR-4 ovarian
# RXF 393 renal = system: RXF 393 renal
# DU-145 prostate = system: DU-145 prostate
# A549 NSCLC = system: A549 NSCLC
# K-562 leukemia = system: K-562 leukemia
# BT-549 breast = system: BT-549 breast
# ACHN renal = system: ACHN renal
# MDA-N = system: MDA-N
# NCI-H522 lung = system: NCI-H522 lung
# SNB-75 CNS = system: SNB-75 CNS
# IGROV1 ovarian = system: IGROV1 ovarian
# OVCAR-8 ovarian = system: OVCAR-8 ovarian
# U251 CNS = system: U251 CNS
# LOX IMVI melanoma = system: LOX IMVI melanoma
# SF-295 CNS = system: SF-295 CNS
# NCI-H23 lung = system: NCI-H23 lung
# T-47D breast = system: T-47D breast
SMILES,TGI (KM12 colon),TGI (HCC-2998 colon),TGI (MALME-3M melanoma),TGI (OVCAR-4 ovarian),TGI (RXF 393 renal),TGI (DU-145 prostate),TGI (A549 NSCLC),TGI (K-562 leukemia),TGI (BT-549 breast),TGI (ACHN renal),TGI (MDA-N),TGI (NCI-H522 lung),TGI (SNB-75 CNS),TGI (IGROV1 ovarian),TGI (OVCAR-8 ovarian),TGI (U251 CNS),TGI (LOX IMVI melanoma),TGI (SF-295 CNS),TGI (NCI-H23 lung),TGI (T-47D breast)
CC(=O)Oc1cc(-c2oc3cc(OC(C)=O)c(C4OC(CO)C(O)C(O)C4O)c(OC(C)=O)c3c(=O)c2O)c(OC(C)=O)cc1O (stereo not drawn),> 100 µM,> 100 µM,> 100 µM,> 100 µM,> 100 µM,> 100 µM,> 100 µM,> 100 µM,> 100 µM,> 100 µM,> 100 µM,> 100 µM,> 100 µM,> 100 µM,> 100 µM,> 100 µM,> 100 µM,> 100 µM,> 100 µM,
CC1(C)[C@H]2Cc3cc4nc5ccccn5c4cc3[C@@H]1C2,36.7 µM,37 µM,25.7 µM,26 µM,,41 µM,40.7 µM,> 100 µM,41.5 µM,34.2 µM,33.4 µM,21.9 µM,31.6 µM,43 µM,30.5 µM,34.2 µM,39.4 µM,30.8 µM,32.4 µM,53.7 µM
C=C(C)COc1cc(NC(=S)OC(C)C)ccc1Cl,65.7 µM,29.5 µM,,28.3 µM,,31.1 µM,25.8 µM,38.7 µM,24.3 µM,31.1 µM,31.5 µM,29.1 µM,29.8 µM,31 µM,30.7 µM,30.8 µM,30.4 µM,29.3 µM,31.3 µM,26.8 µM
Cc1c(C#N)c2nc3ccccc3n2c(=O)/c1=C/Nc1ccc(Cl)cc1,> 100 µM,> 100 µM,> 100 µM,> 100 µM,25.6 µM,,> 100 µM,> 100 µM,99.6 µM,25 µM,> 100 µM,> 100 µM,23.1 µM,> 100 µM,> 100 µM,24.6 µM,> 100 µM,61.5 µM,59.8 µM,> 100 µM
Cn1c(=O)cc(Nc2ccc(N)cc2)[nH]c1=O,> 100 µM,> 100 µM,> 100 µM,> 100 µM,> 100 µM,,> 100 µM,> 100 µM,> 100 µM,> 100 µM,> 100 µM,> 100 µM,> 100 µM,> 100 µM,> 100 µM,> 100 µM,> 100 µM,> 100 µM,> 100 µM,> 100 µM
COCCCNc1c2ccccc2nc2ccccc12,24.6 µM,4.58 µM,7.17 µM,20.6 µM,14.2 µM,9.75 µM,14 µM,23.6 µM,53.2 µM,2.39 µM,8.78 µM,6.8 µM,,22.9 µM,15.5 µM,,5.67 µM,14.9 µM,10.3 µM,6.89 µM
[O-][N+]1=C2CCC/C(=N/O)C2(O)C2CCCCC21N1CCOCC1 (stereo not drawn),> 100 µM,> 100 µM,> 100 µM,> 100 µM,> 100 µM,,> 100 µM,> 100 µM,> 100 µM,> 100 µM,> 100 µM,> 100 µM,> 100 µM,> 100 µM,> 100 µM,> 100 µM,> 100 µM,> 100 µM,> 100 µM,> 100 µM
Cc1ccc(-c2cc(=O)c(=O)[nH][nH]2)cc1,> 100 µM,> 100 µM,,> 100 µM,> 100 µM,> 100 µM,> 100 µM,> 100 µM,> 100 µM,> 100 µM,> 100 µM,> 100 µM,> 100 µM,> 100 µM,> 100 µM,> 100 µM,> 100 µM,> 100 µM,> 100 µM,> 100 µM
Cn1c(=S)[nH]c(N)c(Cc2ccccc2)c1=O,> 100 µM,> 100 µM,> 100 µM,> 100 µM,> 100 µM,> 100 µM,> 100 µM,> 100 µM,> 100 µM,> 100 µM,> 100 µM,,> 100 µM,68.4 µM,> 100 µM,> 100 µM,> 100 µM,> 100 µM,> 100 µM,> 100 µM
O=C(OCC(OC(=O)c1ccccc1)C1CC(C2(O)CCCCC2)C(=O)O1)c1ccccc1 (stereo not drawn),> 25 µM,> 25 µM,> 25 µM,> 25 µM,> 25 µM,> 25 µM,> 25 µM,> 25 µM,> 25 µM,> 25 µM,> 25 µM,> 25 µM,> 25 µM,> 25 µM,> 25 µM,> 25 µM,> 25 µM,> 25 µM,7.85 µM,
CCCCCCCCCCCCc1ccsc1-c1ccc(-c2ccc(-c3sccc3CCCCCCCCCCCC)s2)s1,> 100 µM,> 100 µM,,,> 100 µM,> 100 µM,> 100 µM,> 100 µM,> 100 µM,> 100 µM,> 100 µM,> 100 µM,> 100 µM,> 100 µM,> 100 µM,> 100 µM,> 100 µM,> 100 µM,> 100 µM,> 100 µM
O[C@@]12Cc3c([nH]c4ccccc34)[C@@H]3Oc4c(-c5ccccc5)ccc5c4[C@@]31CCN(CC1CC1)[C@@H]2C5,3.35 µM,2.92 µM,3.99 µM,7.03 µM,,,3.53 µM,7.56 µM,23.4 µM,2.75 µM,3.23 µM,3.36 µM,,15 µM,5.01 µM,3.09 µM,3.52 µM,3.5 µM,3.55 µM,4.71 µM
